Experimental data as given in PMC3081989 (Biochemistry, 2010).
Where a SMILES comes first, the peptide text is derived from it.

Key:
[1] = system: hRXRα-LBD homodimer; experiment: hydrogen deuterium exchange mass spectrometry; format: binding, human
[2] = system: humans; conditions: cited from earlier work
[3] = target: T1, hRXRα-LBD:9cRA homodimers (Homo sapiens, UniProt P19793); experiment: isothermal titration calorimetry; conditions: 37 °C, buffer C pH 8.0, single-site binding model
T1 sequence (P19793 223-462): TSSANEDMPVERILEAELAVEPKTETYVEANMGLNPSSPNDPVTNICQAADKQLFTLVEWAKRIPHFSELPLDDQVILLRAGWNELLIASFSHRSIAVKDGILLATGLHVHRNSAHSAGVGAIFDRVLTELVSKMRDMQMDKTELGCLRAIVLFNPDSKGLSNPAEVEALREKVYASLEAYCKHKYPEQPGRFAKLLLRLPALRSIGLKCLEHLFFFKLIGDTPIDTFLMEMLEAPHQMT

[4] = target: GRIP-1 (NCOA2/TIF2) NR-box II coactivator peptide, 13-mer (UniProt Q15596); experiment: ITC; conditions: pH 8.0, 25 °C, 50 mM NaCl, buffer C: 10 mM Tris

For `CC1=C(/C=C/C(C)=C\C=C\C(C)=C\C(=O)O)C(C)(C)CCC1` [9cRA, 9-cis-retinoic acid], the “reduction in deuterium incorporation, peptide L419-F438 (H11)” value ([1]; following 15 s of deuterium incorporation, 9cRA alone) was over 20%, the “rate of deuterium incorporation, H12 region” value ([1]; hRXRα-LBD:9cRA versus apo-hRXRα-LBD, GRIP-1 added to hRXRα-LBD:9cRA) was “unaltered rates of incorporation” and the “change in deuterium incorporation of peptides around the ligand binding pocket” value ([1]; relative to apo-hRXRα-LBD, upon 9cRA binding) was 10–37%. The “reduction in deuterium incorporation, peptide L301-L308 (H4)” value ([1]; text: upon the addition of GRIP-1 versus in the presence of 9cRA alone) was 12% and the toxicity ([2]; oral administration to humans) was “displays significant toxicity with oral administration to humans”.

Work on `CC[C@H](C)[C@H](NC(=O)[C@H](CCCCN)NC(=O)[C@H](Cc1c[nH]cn1)NC(=O)[C@@H](N)CCCCN)C(=O)N[C@@H](CC(C)C)C(=O)N[C@@H](Cc1c[nH]cn1)C(=O)N[C@@H](CCCNC(=N)N)C(=O)N[C@@H](CC(C)C)C(=O)N[C@@H](CC(C)C)C(=O)N[C@@H](CCC(N)=O)C(=O)N[C@@H](CC(=O)O)C(=O)N[C@@H](CO)C(=O)N[C@@H](CO)C(=O)O` [GRIP-1] (H-KHKILHRLLQDSS-OH) yielded a Kd [3] of 1 ± 0.05 µM.

In the case of `C=C(c1ccc(C(=O)O)cc1)c1cc2c(cc1C)C(C)(C)CCC2(C)C` [Targretin], the “dose limiting toxicities compared with 9cRA” value ([2]; oral treatment of cutaneous T-cell lymphoma) is listed as “significantly fewer dose limiting toxicities than 9cRA”.

Work on “Retinoid X receptor alpha ligand-binding domain, homodimer loaded with 9-cis-retinoic acid (hRXRalpha-LBD:9cRA)” yielded a ΔH [4] of -9.15 kcal/mol.
